≈ marks a conversion by molar mass, not a printed value.
Key:
Format in all cases: functional
Neisseria gonorrhoeae [1] = experiment: Antimicrobial activity against Neisseria gonorrhoeae 273 isolate
Neisseria gonorrhoeae [2] = experiment: Antimicrobial activity against Neisseria gonorrhoeae 201 isolate
Neisseria gonorrhoeae [3] = experiment: Antimicrobial activity against Neisseria gonorrhoeae 59 isolate
Neisseria gonorrhoeae [4] = experiment: Antimicrobial activity against Neisseria gonorrhoeae 90 isolate
Neisseria gonorrhoeae [5] = experiment: Antimicrobial activity against Neisseria gonorrhoeae 35 isolate
Neisseria gonorrhoeae [6] = experiment: Antimicrobial activity against Neisseria gonorrhoeae 119 isolate
Neisseria gonorrhoeae [7] = experiment: Antimicrobial activity against Neisseria gonorrhoeae 67 isolate
Neisseria gonorrhoeae [8] = experiment: Antimicrobial activity against Neisseria gonorrhoeae 64 isolate
Neisseria gonorrhoeae [9] = experiment: Antimicrobial activity against Neisseria gonorrhoeae 65 isolate
Neisseria gonorrhoeae [10] = experiment: Antimicrobial activity against Neisseria gonorrhoeae 158 isolate
Neisseria gonorrhoeae [11] = experiment: Antimicrobial activity against Neisseria gonorrhoeae 128 isolate
Neisseria gonorrhoeae [12] = experiment: Antimicrobial activity against Neisseria gonorrhoeae 253 isolate
Neisseria gonorrhoeae [13] = experiment: Antimicrobial activity against Neisseria gonorrhoeae 196 isolate
Neisseria gonorrhoeae [14] = experiment: Antimicrobial activity against Neisseria gonorrhoeae 82 isolate
Neisseria gonorrhoeae [15] = experiment: Antimicrobial activity against Neisseria gonorrhoeae 188 isolate
Neisseria gonorrhoeae [16] = experiment: Antimicrobial activity against Neisseria gonorrhoeae 91 isolate
Neisseria gonorrhoeae [17] = experiment: Antimicrobial activity against Neisseria gonorrhoeae 30 isolate

Row | SMILES | MIC (Neisseria gonorrhoeae [1]) | MIC (Neisseria gonorrhoeae [2]) | MIC (Neisseria gonorrhoeae [3]) | MIC (Neisseria gonorrhoeae [4]) | MIC (Neisseria gonorrhoeae [5]) | MIC (Neisseria gonorrhoeae [6]) | MIC (Neisseria gonorrhoeae [7]) | MIC (Neisseria gonorrhoeae [8]) | MIC (Neisseria gonorrhoeae [9]) | MIC (Neisseria gonorrhoeae [10]) | MIC (Neisseria gonorrhoeae [11]) | MIC (Neisseria gonorrhoeae [12]) | MIC (Neisseria gonorrhoeae [13]) | MIC (Neisseria gonorrhoeae [14]) | MIC (Neisseria gonorrhoeae [15]) | MIC (Neisseria gonorrhoeae [16]) | MIC (Neisseria gonorrhoeae [17])
1 | C=CC1=C(C(=O)O)N2C(=O)[C@@H](NC(=O)/C(=N\OCC(=O)O)c3csc(N)n3)[C@H]2SC1 [CEFIXIME] | 0.064 mg/L (≈ 0.141 µM) | 0.064 mg/L (≈ 0.141 µM) | 0.25 mg/L (≈ 0.551 µM) | 0.38 mg/L (≈ 0.838 µM) | 0.38 mg/L (≈ 0.838 µM) | < 0.016 mg/L | 0.25 mg/L (≈ 0.551 µM) | 0.25 mg/L (≈ 0.551 µM) | 0.25 mg/L (≈ 0.551 µM) | 0.047 mg/L (≈ 0.104 µM) | < 0.016 mg/L | 0.064 mg/L (≈ 0.141 µM) | 0.094 mg/L (≈ 0.207 µM) | 0.38 mg/L (≈ 0.838 µM) | 0.064 mg/L (≈ 0.141 µM) | 0.38 mg/L (≈ 0.838 µM) | 0.25 mg/L (≈ 0.551 µM)
2 | CO/N=C(\C(=O)N[C@@H]1C(=O)N2C(C(=O)O)=C(CSc3nc(=O)c(O)nn3C)CS[C@H]12)c1csc(N)n1 [CEFTRIAXONE] | 0.094 mg/L (≈ 0.169 µM) | 0.064 mg/L (≈ 0.115 µM) | 0.094 mg/L (≈ 0.169 µM) | 0.125 mg/L (≈ 0.225 µM) | 0.094 mg/L (≈ 0.169 µM) | < 0.002 mg/L | 0.094 mg/L (≈ 0.169 µM) | 0.094 mg/L (≈ 0.169 µM) | 0.094 mg/L (≈ 0.169 µM) | 0.094 mg/L (≈ 0.169 µM) | < 0.002 mg/L | 0.064 mg/L (≈ 0.115 µM) | 0.094 mg/L (≈ 0.169 µM) | 0.125 mg/L (≈ 0.225 µM) | 0.064 mg/L (≈ 0.115 µM) | 0.125 mg/L (≈ 0.225 µM) | 0.094 mg/L (≈ 0.169 µM)
3 | CC1(C)S[C@@H]2[C@H](NC(=O)Cc3ccccc3)C(=O)N2[C@H]1C(=O)O [PENICILLIN G] | 1.5 mg/L (≈ 4.49 µM) | 1 mg/L (≈ 2.99 µM) | 6 mg/L (≈ 17.9 µM) | 6 mg/L (≈ 17.9 µM) | 2 mg/L (≈ 5.98 µM) | 0.012 mg/L (≈ 0.0359 µM) | 2 mg/L (≈ 5.98 µM) | 2 mg/L (≈ 5.98 µM) | 1.5 mg/L (≈ 4.49 µM) | 1.5 mg/L (≈ 4.49 µM) | 0.008 mg/L (≈ 0.0239 µM) | 1.5 mg/L (≈ 4.49 µM) | 1 mg/L (≈ 2.99 µM) | 6 mg/L (≈ 17.9 µM) | 1 mg/L (≈ 2.99 µM) | 6 mg/L (≈ 17.9 µM) | 3 mg/L (≈ 8.97 µM)
